Experimental data from ChEMBL document CHEMBL5727863, “Substituted imidazo[1,2-A]pyridin-2-ylamine compounds, and pharmaceutical compositions and methods of use thereof” (2020).

Key:
[1] = target: Tyrosine-protein kinase JAK1 (Homo sapiens, UniProt P23458); assay: (§1) In Vitro Assays for Determining the Inhibition of Janus Kinases: The in vitro inhibition of recombinant human JAKs was determined as follow.Compounds were tested in LANTHASCREEN™ time-resolved fluorescence energy transfer (TR-FRET) enzymatic assays from Invitrogen. The human Janus kinase 1 (JAK1) used in the assay is the recombinant JAK1 catalytic domain (amino acids 866-1154) expressed and purified from insect cells (Invitrogen, Cat. No. PV4774). The human Janus kinase 2 (JAK2) used in the assay is the recombinant JAK2 catalytic domain (amino acids 808-1132) expressed and purified from insect cells (Invitrogen, Cat. No. PV4210). The human Janus kinase 3 (JAK3) used in the assay is the recombinant JAK3 catalytic domain (amino acids 781-1124) expressed and purified from insect cells (Invitrogen, Cat. No. PV3855). The human tyrosine kinase 2 (TYK2) used in the assay is the recombinant TYK2 catalytic domain (amino acids 833-1187) expressed and purified from insect cells (Invitrogen, Cat. No. PV4790). The substrate is a recombinant STAT1 expressed as a fusion with GFP (Green Fluorescent Protein) to act as a physiological substrate (Invitrogen, Cat. No. PV5211).Test compounds were prepared and diluted in DMSO in 3-fold serial dilutions for 10 doses to 100× of the final testing concentrations. The compounds were then further diluted to 4× by the kinase reaction buffer (Invitrogen, Cat. No. PV3189). The enzymatic reaction for compound testing was performed in a white 384-well polypropylene plate (Packard, Cat. No. 6005214) with a total reaction volume of 10 μL containing 440 ng/mL JAK1, 11 ng/mL JAK2, 400 ng/mL JAK3, or 200 ng/mL TYK2, 100 nM substrate, and 1 mM ATP. The assay started with loading 2.5 μL of JAK1, JAK2, JAK3, or TYK2 diluted in the kinase reaction buffer to wells, followed by addition of an equal volume of 4× compounds for 15-min incubation at room temperature for pre-treatment. The enzymatic reaction was initiated by addition of 5 μL of a mixture of the substrate and ATP prepared in the kinase reaction buffer. […]
[2] = target: Tyrosine-protein kinase JAK2 (Homo sapiens, UniProt O60674); assay: as §1
[3] = target: Non-receptor tyrosine-protein kinase TYK2 (Homo sapiens, UniProt P29597); assay: as §1

Measured: IC50

Chain of Non-receptor tyrosine-protein kinase TYK2 (P29597 whole entry): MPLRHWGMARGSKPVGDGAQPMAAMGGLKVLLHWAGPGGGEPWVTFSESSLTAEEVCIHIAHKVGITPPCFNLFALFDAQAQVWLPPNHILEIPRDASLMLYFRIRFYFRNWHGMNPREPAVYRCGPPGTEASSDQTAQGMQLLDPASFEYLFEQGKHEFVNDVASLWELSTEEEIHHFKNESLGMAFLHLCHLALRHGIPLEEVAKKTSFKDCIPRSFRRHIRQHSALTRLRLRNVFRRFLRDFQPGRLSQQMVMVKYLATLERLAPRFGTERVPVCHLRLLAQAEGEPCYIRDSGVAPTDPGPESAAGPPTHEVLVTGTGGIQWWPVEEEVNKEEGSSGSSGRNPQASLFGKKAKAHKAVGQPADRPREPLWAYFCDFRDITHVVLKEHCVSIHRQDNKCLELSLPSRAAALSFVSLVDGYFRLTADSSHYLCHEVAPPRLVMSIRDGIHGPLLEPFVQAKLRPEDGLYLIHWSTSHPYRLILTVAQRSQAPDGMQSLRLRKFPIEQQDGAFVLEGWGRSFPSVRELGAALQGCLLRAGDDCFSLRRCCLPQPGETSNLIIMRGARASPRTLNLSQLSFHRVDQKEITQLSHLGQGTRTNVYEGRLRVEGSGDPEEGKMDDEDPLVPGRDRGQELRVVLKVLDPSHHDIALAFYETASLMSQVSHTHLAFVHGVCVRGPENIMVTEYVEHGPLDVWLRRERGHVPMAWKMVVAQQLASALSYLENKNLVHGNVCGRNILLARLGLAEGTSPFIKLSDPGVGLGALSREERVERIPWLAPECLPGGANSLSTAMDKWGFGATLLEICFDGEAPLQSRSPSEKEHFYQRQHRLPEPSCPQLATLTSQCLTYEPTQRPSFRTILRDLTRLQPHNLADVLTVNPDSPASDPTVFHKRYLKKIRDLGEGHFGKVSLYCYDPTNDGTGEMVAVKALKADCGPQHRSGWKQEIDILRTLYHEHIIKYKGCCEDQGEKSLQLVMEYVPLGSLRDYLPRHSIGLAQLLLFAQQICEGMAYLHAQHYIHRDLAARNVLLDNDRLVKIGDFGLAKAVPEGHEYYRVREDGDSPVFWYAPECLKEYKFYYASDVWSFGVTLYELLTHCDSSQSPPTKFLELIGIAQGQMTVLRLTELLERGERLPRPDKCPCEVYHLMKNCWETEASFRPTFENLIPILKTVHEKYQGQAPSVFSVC
Chain of Tyrosine-protein kinase JAK1 (P23458 whole entry, the tested form may be a part): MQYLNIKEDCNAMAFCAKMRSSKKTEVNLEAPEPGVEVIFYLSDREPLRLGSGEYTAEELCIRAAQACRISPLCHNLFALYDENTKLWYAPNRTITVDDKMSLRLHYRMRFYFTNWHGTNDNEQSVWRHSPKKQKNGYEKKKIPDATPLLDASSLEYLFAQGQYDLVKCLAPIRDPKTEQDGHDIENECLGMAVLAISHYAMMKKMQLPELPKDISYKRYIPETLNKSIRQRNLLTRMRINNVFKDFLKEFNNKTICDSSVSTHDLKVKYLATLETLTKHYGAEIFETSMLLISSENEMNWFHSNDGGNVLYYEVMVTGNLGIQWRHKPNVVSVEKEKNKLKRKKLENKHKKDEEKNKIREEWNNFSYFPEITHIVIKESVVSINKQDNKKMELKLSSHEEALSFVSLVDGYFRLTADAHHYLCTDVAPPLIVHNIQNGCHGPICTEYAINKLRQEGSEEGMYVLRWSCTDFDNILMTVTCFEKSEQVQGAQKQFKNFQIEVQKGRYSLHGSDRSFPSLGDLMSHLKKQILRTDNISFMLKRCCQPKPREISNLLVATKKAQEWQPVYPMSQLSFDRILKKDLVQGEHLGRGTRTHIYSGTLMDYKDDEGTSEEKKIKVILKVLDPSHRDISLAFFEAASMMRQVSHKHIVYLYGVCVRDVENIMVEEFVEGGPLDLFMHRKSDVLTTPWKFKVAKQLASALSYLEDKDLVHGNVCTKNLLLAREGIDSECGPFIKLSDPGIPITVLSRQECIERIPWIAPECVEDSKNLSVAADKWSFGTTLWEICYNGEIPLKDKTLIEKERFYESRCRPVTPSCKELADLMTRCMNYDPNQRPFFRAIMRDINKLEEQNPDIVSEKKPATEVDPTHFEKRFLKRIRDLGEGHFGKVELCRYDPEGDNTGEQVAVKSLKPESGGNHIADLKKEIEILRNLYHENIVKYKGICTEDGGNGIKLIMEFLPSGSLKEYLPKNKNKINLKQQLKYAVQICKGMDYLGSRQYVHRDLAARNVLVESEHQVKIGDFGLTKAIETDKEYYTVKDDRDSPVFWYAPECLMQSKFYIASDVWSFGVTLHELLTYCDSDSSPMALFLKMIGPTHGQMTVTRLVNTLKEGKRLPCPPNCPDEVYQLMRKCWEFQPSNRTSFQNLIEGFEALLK
Chain of Tyrosine-protein kinase JAK2 (O60674 whole entry): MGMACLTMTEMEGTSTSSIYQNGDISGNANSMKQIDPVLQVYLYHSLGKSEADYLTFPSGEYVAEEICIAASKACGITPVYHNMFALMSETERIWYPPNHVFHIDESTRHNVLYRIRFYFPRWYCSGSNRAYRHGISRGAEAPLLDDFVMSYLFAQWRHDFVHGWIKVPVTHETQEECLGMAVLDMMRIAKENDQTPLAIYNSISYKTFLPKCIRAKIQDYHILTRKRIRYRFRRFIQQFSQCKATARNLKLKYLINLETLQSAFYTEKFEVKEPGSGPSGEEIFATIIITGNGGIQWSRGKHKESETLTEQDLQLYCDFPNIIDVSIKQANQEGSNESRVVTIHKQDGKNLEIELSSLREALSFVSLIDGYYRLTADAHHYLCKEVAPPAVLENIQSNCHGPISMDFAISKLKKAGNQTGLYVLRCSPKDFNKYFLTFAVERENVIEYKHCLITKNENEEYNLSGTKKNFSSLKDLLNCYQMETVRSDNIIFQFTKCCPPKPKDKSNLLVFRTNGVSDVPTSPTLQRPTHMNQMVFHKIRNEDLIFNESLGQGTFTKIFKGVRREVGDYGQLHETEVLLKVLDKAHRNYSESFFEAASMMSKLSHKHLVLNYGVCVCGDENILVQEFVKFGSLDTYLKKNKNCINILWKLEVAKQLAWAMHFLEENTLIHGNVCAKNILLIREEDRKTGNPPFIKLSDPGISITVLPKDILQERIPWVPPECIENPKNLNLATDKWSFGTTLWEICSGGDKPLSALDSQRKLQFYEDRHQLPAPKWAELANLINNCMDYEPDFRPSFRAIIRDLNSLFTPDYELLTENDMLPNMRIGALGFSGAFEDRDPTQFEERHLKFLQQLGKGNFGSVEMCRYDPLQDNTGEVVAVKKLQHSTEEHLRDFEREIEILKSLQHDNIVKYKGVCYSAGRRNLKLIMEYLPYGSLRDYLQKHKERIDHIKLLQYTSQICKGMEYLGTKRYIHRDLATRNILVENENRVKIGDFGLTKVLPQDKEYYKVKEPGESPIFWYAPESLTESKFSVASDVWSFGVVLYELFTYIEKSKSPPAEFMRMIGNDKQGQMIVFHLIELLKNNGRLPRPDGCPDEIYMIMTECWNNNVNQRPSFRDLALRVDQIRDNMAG

N#CC1(c2ccc(-c3cccc4nc(NC(=O)C5CC5)cn34)cc2)CC1
> 5 µM: all assays above
